{
  "source": "patent US7390830B1",
  "about": "“Remedies or prophylactics for diseases in association with chemokines” (Teijin Limited, priority 1999, dated 2008)",
  "key": {"[1]": {"biological_target": "T1, human MCP-1 binding to THP-1 cells (Homo sapiens, UniProt P41597)", "T1 construct": "endogenous in cells; host or cells: THP-1 (whole cells)", "T1 sequence (P41597 1-360 isoform P41597-2)": "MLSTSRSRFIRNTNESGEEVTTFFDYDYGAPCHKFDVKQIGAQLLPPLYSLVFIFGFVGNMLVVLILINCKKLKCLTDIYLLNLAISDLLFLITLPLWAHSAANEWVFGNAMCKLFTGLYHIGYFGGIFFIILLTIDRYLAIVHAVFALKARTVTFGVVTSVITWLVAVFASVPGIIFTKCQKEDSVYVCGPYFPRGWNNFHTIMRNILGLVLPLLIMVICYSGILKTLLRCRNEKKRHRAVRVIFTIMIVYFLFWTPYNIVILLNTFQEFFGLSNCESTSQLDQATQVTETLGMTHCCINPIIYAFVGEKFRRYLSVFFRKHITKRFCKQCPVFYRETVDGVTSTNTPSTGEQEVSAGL", "test": "Inhibitory activity against binding of [125I]-labeled human MCP-1 to THP-1 cells (method 1)", "conditions": "concentration of 10 μM", "source_text": "Two kinds of DNA synthetic primers (5′-[…]-3′ (SEQ ID NO:1) and 5′-[…]-3′) (SEQ ID NO:2) having restriction enzyme recognition sites applied on the basis of the known human MCP-1 gene sequence (see, for example, Yoshimura, T. et al. FEBS Letters 1989, 244, 487-493) were used to amplify a cDNA derived from human vascular endothelial cells (purchased from Kurabow) according to a PCR method. The amplified fragment was cleaved with restriction enzymes (PstI and XbaI) and then ligated into a transfer vector pVL1393 (Invitrogen Co.). The resulting vector was co-transfected with an infectious baculovirus into Sf-9 insect cells. […]\n(§1) After completing the reaction, the reaction solution was filtered through a filter, and the filter was washed with 200 μL of cold PBS twice (the reaction solution was filtered after adding 200 μL of the cold PBS). The filter was air-dried and 25% L of liquid scintillator was then added into each well to count the radioactivity retained by the cells on the filter using TopCount (Packard Instrument Co.).\n(§2) The count when 100 ng of the above human MCP-1 expressed with baculovirus (unlabeled) instead of the test compound was added was subtracted as nonspecific adsorption, and the count when the test compound was not added was taken as 100%. Thereby, the inhibitory activity of the test compound against binding of the human MCP-1 to THP-1 cells was calculated. […]"}, "[2]": {"biological_target": "T2, human MIP-1 α binding to THP-1 cells (Homo sapiens, UniProt P32246)", "T2 construct": "endogenous in cells; host or cells: THP-1 (whole cells)", "T2 sequence (P32246 1-355)": "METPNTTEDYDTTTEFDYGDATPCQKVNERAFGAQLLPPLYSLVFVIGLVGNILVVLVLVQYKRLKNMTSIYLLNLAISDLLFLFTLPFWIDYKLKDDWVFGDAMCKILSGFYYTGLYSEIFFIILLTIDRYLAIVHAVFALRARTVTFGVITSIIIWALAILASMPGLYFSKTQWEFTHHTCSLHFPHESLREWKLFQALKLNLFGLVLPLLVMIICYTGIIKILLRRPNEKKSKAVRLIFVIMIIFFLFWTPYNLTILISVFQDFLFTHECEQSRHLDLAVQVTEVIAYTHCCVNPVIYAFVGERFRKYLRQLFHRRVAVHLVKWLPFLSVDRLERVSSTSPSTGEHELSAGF", "test": "Inhibitory activity against binding of MIP-1 α to THP-1 cells", "conditions": "concentration of 2 μM", "method": "THP-1 cells which are human monocytic leukemia cell line were suspended in an assay buffer [prepared by adding 0.1% of BSA and 25 mM of HEPES to RPMI-1640 (Gibco-BRL Co.) and adjusting the pH to 7.4] so as to provide 1×10^7 cells/mL to thereby afford a cell suspension. A solution obtained by diluting the test compound with the assay buffer was used as a test compound solution. A solution prepared by diluting an iodine-labeled human MIP-1 α (DuPont NEN Co.) with the assay buffer so as to provided 250 nCi/mL was used as a labeled ligand solution. […]\nas §1, with “air-dried,” for “air-dried”, “25 μL” for “25% L”\nas §2, with “an unlabeled” for “the above”, “MIP-1 α (Peprotech Co.)” for “MCP-1 expressed with baculovirus (unlabeled)”, “MIP-1 α” for “MCP-1”"}, "[3]": {"test_system": "collagen-induced arthritis", "test": "Collagen-induced arthritis in rats", "format": "in vivo, Lewis female rats", "conditions": "300 mg/kg orally every day for 3 weeks, 5, 7, 9, 12 and 14 days after boosting"}, "[4]": {"test_system": "glomerulonephritis induced by anti-glomerular basement membrane serum", "test": "Masugi's nephritis model in WKY rats", "format": "in vivo", "method": "Rabbits were immunized with a trypsin fraction of rat kidney cortex to provide an anti-glomerular basement membrane serum which was intravenously injected to 4-weeks-old female WKY rats (Charles River) in a dose of 2.5 mL/kg body weight to induce glomerulonephritis. After injection of the antiserum, urine of each animal was collected for 24 hours with metabolic cages for rats (Clea Japan, Inc.) on the 1st, 4th, 7th, 10th and 14th days after the injection. The amount of the urine was measured by urine weight and the protein content in the urine was measured by using a kit for assaying proteins in urine and cerebrospinal fluid (Tonein TP-II, Otsuka Pharmaceutical Co., Ltd.) to determine the amount of proteins excreted in urine per day. Serum of the animals subjected to the experiments was collected on the 15th day after injecting the antiserum, and creatinine concentration in blood was measured with a creatinine assay kit (Autosera®), Daiichi Pure Chemicals Co., Ltd.) using a Hitach±7070 model autoanalyzer. The test compound was daily orally administered in a dose of 100 mg/kg body weight twice a day from the date of injecting the anti-glomerular basement membrane serum (about 10:00 a.m. and about 6:00 p.m. in Experiment 1 and about 10:00 a.m. and about 5:00 p.m. in Experiment 2). In the control group, only the solution (a 0.5% aqueous solution of sodium carboxymethylcellulose) was orally administered. The administration volume was 10 mL/kg body weight, and the number of animals (N) was 10."}, "[5]": {"test_system": "chronic relapsing experimental allergic encephalomyelitis", "test": "Chronic relapsing experimental allergic encephalomyelitis in mice", "format": "in vivo, SJL/J×PL/J F1 mice"}, "[6]": {"conditions": "300 mg/kg body weight oral, to 21 days after injection of the emulsion"}, "[7]": {"conditions": "300 mg/kg body weight orally, vs control"}},
  "data": [
    {"smiles": "O=C(CNC(=O)c1cccc(C(F)(F)F)c1)NCC1CCN(Cc2cccc(OC(F)(F)F)c2)CC1", "note": "[Compd. No. 927, 1-[3-(trifluoromethoxy)benzyl]-4-[(N-(3-(trifluoromethyl)benzoyl)glycyl)aminomethyl]piperidine]", "values": [
      {"measurement": "inhibition at 10 µM", "setting": "[1]", "value": "20 to 50", "unit": "%"}
    ]},
    {"smiles": "CCOc1cccc(C(=O)N[C@H](Cc2ccccc2)C(=O)NCC2CCN(Cc3ccc(Cl)cc3)CC2)c1", "note": "[Compd. No. 2091, 1-(4-chlorobenzyl)-4-[[N-(3-ethoxybenzoyl)-D-phenylalanyl]aminomethyl]piperidine]", "values": [
      {"measurement": "inhibition at 2 µM", "setting": "[2]", "value": "50 to 80", "unit": "%"}
    ]},
    {"smiles": "Nc1cc(F)c(F)cc1C(=O)NCC(=O)NCC1CCN(Cc2ccc(Cl)cc2)CC1", "note": "[compound 1245]", "values": [
      {"measurement": "joint swelling (hindlimb footpad volume)", "setting": "[3]", "value": "significantly inhibited joint swelling"},
      {"measurement": "inhibition of the concentration of urinary proteins", "setting": "[4]; 4th day after antiserum, 100 mg/kg orally twice a day, vs control", "value": 74, "unit": "%"},
      {"measurement": "inhibition of the concentration of urinary proteins", "setting": "[4]; 7th day after antiserum, 100 mg/kg orally twice a day, vs control", "value": 85, "unit": "%"},
      {"measurement": "inhibition of the concentration of urinary proteins", "setting": "[4]; 10th day after antiserum, 100 mg/kg orally twice a day, vs control", "value": 81, "unit": "%"},
      {"measurement": "inhibition of the concentration of urinary proteins", "setting": "[4]; 14th day after antiserum, 100 mg/kg orally twice a day, vs control", "value": 82, "unit": "%"},
      {"measurement": "decrease of creatinine concentration in blood", "setting": "[4]; 15th day after antiserum, 100 mg/kg orally twice a day, vs control", "value": 10, "unit": "%"},
      {"measurement": "Serum Creatinine Concentration on the 15th Day", "setting": "[4]; WKY rats, Experiment 2, 100 mg/kg body weight orally twice a day, 15th day after injecting anti-glomerular basement membrane serum, mean ± spread", "value": "0.48 ± 0.04", "unit": "mg/dL"},
      {"measurement": "Maximal Clinical Score", "setting": "[5]; 300 mg/kg body weight oral, score 0-5, to 21 days after injection of the emulsion", "value": "2.5 ± 1.5"},
      {"measurement": "Duration of Clinical Sign", "setting": "[5]; [6]", "value": "5.4 ± 2.4"},
      {"measurement": "Incidence (Number of Onset Animals/Number of Immunized Animals)", "setting": "[5]; [6]", "value": "17/19"},
      {"measurement": "onset date", "setting": "[5]; [6]", "value": "13.2 ± 2.4"},
      {"measurement": "onset date", "setting": "[5]; [7]", "value": "delay in onset date (p<0.05)"},
      {"measurement": "symptoms (clinical scores)", "setting": "[5]; [7]", "value": "tendency to inhibit symptoms (no significant difference)"}
    ]}
  ]
}
